Assay results published in patent US8642834B2, “Methods for the identification of agents that inhibit mesenchymal-like tumor cells or their formation” (OSI Pharmaceuticals, LLC, priority 2009, dated 2014).

Test system: CFPAC1 cells
Assay: Transcriptional changes to EMT genes, qPCR
Assay type: cell-based, human
Protocol: The CFPAC1 cell line was cultured in DMEM media (Gibco #11960) supplemented with 10% FBS (Sigma), 2 mM L Glutamine (Gibco), at 37° C., 5% CO2. For 7 day treatments, cells were seeded on tissue culture plastic in complete growth media and allowed to attach overnight at cell densities that would provide approximately 60-80% confluence at end of experiment. Ligand and/or inhibitor was added the following day (Day 0) in complete growth media and incubated at 37° C., 5% CO2. Ligand source and concentrations used are as follows: [1] From R&D systems, SDF-1α (stromal derived factor-1 alpha) at 100 ng/ml, TRANCE (TNF-related activation induced cytokine) at 50 ng/ml, FGF1 (fibroblast growth factor acidic) at 10 ng/ml, FGF2 (fibroblast growth factor basic) at 10 ng/ml, BMP4 (bone morphogenetic protein 4) at 100 ng/ml, BMP7 (bone morphogenetic protein 7) at 100 ng/ml, IGF2 (insulin-like growth factor 2) at 100 ng/ml, OSM (Oncostatin M) at 100 ng/ml, NRG1 (Neuregulin-1) at 50 ng/ml, PDGFaa (Platelet derived growth factor a) at 50 ng/ml, PDGFbb (platelet derive growth factor b) at 30 ng/ml, Ang2 (Angiopoeitin 2) at 400 ng/ml, amphiregulin at 100 ng/ml, HMGB 1 (Human high-mobility group box 1 protein) at 50 ng/ml; [2] From Genscript, LIF (Leukemia inhibitory factor) at 20 ng/ml, GM-CSF (Granulocyte macrophage colony stimulating factor) at 25 ng/ml, M-CSF (Macrophage colony stimulating factor) at 50 ng/ml; [3] From Anaspec, PAR1 (Protease activated receptor 1 agonist) at 100 μM; PAR2 (Protease activated receptor 2 agonist; peptide SLIGKV-NH2, Cat. No. 60217-1) at 100 μM; PAR4 (Protease activated receptor […] agonist; peptide AYPGKF-NH2, Cat. No. 60218-1) at 100 μM; [4] From Peprotech, HGF (Hepatocyte Growth Factor) at 100 ng/ml; IL-31 (Interleukin-31) at 50 ng/ml, IL-33 (Interleukin-33) at 50 ng/ml, IL1-a (Interleukin-1 alpha) at 10 ng/ml, CTGF (Connective tissue growth factor) at 20 ng/ml, WISP1 (Wnt-1 inducible signaling pathway protein) at 20 ng/ml, PTHrP ([…] hormone-related protein) at 50 ng/ml, MCP1 (monocyte chemotactic protein-1) at 50 ng/ml; and [5] from Sigma, Fulvestrant at 1 μM. Fresh medium containing ligand and/or inhibitor was added 3-4 days after initial dose, and at Day 7 cells were harvested for western blot analysis.
Cells were plated and treated with ligand for one or 7 days. At the time of harvest, cells were trypsinized and snap frozen for later use. Total RNA was isolated using RNAqueous-4 PCR Kit (Ambion, AM1914). For qPCR on tumor material, the tumor samples were homogenized using a small tissue homogenizer (Ultra-Turrax T8 from IKA-Werke) in 175ul RNA lysis buffer. Homogenization was for 1 minute on ice. RNA was isolated using the SV Total RNA Isolation System (Promega Cat #Z3100) according to the manufactures instructions. Samples were DNase treated using the Turbo DNA-Free kit (Ambion, AM1907) and reverse transcribed using Superscript III (Invitrogen, 18080-044) for qPCR analysis. Taqman primers and Locked-Nucleic Acid probes were designed using ProbeFinder software (Universal Probe library, Roche). For mRNA analysis, real time PCR was performed using the ABI 7900HT series PCR machine. Thermocycle conditions were as follows: 50° C. for 2 minutes, 95° C. for 10 minutes, 95° C. for 15 seconds, 50° C. for 10 seconds, 60° C. for 1 minute. Data was collected over 45 cycles and then normalized to GAPDH and further normalized to the untreated control sample.

HGF: Hepatocyte Growth Factor from Peprotech, used at 100 ng/ml
ACTN1 mRNA fold change (ligand 1 Day): NC (Only changes greater than 3 fold are reported. NC indicates no change.) | CDH1 mRNA fold change (ligand 1 Day): NC (Only changes greater than 3 fold are reported. NC indicates no change.) | CDH2 mRNA fold change (ligand 1 Day): NC (Only changes greater than 3 fold are reported. NC indicates no change.) | ITGB3 mRNA fold change (ligand 1 Day): NC (Only changes greater than 3 fold are reported. NC indicates no change.) | MMP7 mRNA fold change (ligand 1 Day): NC (Only changes greater than 3 fold are reported. NC indicates no change.) | MTA3 mRNA fold change (ligand 1 Day): NC (Only changes greater than 3 fold are reported. NC indicates no change.) | PLAUR mRNA fold change (ligand 1 Day): NC (Only changes greater than 3 fold are reported. NC indicates no change.) | SNAI1 mRNA fold change (ligand 1 Day): NC (Only changes greater than 3 fold are reported. NC indicates no change.) | SNAI2 mRNA fold change (ligand 1 Day): NC (Only changes greater than 3 fold are reported. NC indicates no change.) | SPARC mRNA fold change (ligand 1 Day): NC (Only changes greater than 3 fold are reported. NC indicates no change.) | TWIST1 mRNA fold change (ligand 1 Day): NC (Only changes greater than 3 fold are reported. NC indicates no change.) | VIM mRNA fold change (ligand 1 Day): NC (Only changes greater than 3 fold are reported. NC indicates no change.) | ZEB1 mRNA fold change (ligand 1 Day): NC (Only changes greater than 3 fold are reported. NC indicates no change.) | ZEB2 mRNA fold change (ligand 1 Day): NC (Only changes greater than 3 fold are reported. NC indicates no change.) | ACTN1 mRNA fold change (ligand 7 Day): NC (Only changes greater than 3 fold are reported. NC indicates no change.) | CDH1 mRNA fold change (ligand 7 Day): NC (Only changes greater than 3 fold are reported. NC indicates no change.) | CDH2 mRNA fold change (ligand 7 Day): NC (Only changes greater than 3 fold are reported. NC indicates no change.) | ITGB3 mRNA fold change (ligand 7 Day): 3.57 fold | MMP7 mRNA fold change (ligand 7 Day): NC (Only changes greater than 3 fold are reported. NC indicates no change.) | MTA3 mRNA fold change (ligand 7 Day): NC (Only changes greater than 3 fold are reported. NC indicates no change.) | PLAUR mRNA fold change (ligand 7 Day): NC (Only changes greater than 3 fold are reported. NC indicates no change.) | SNAI1 mRNA fold change (ligand 7 Day): NC (Only changes greater than 3 fold are reported. NC indicates no change.) | SNAI2 mRNA fold change (ligand 7 Day): NC (Only changes greater than 3 fold are reported. NC indicates no change.) | SPARC mRNA fold change (ligand 7 Day): −5.41 fold | TWIST1 mRNA fold change (ligand 7 Day): 612 fold | VIM mRNA fold change (ligand 7 Day): NC (Only changes greater than 3 fold are reported. NC indicates no change.) | ZEB1 mRNA fold change (ligand 7 Day): NC (Only changes greater than 3 fold are reported. NC indicates no change.) | ZEB2 mRNA fold change (ligand 7 Day): NC (Only changes greater than 3 fold are reported. NC indicates no change.)
